Earlier results on five molecules are cited in patent US9707278B2, “Methods of modulating immune responses by modifying Akt3 bioactivity” (Augusta University Research Institute, Inc., priority 2014, dated 2017).

For data set [1] the following is noted: human, in vivo.
Data set [2] addresses p70S6K (Homo sapiens, UniProt P23443).
In data set [3] the target is PKA (Homo sapiens, UniProt P17612).
For data set [4] the following is noted: patients with advanced solid tumors.
The conditions of data set [5]: patients with advanced solid tumors. The source holds these as a separate data set.
Data set [6] deals with 250 other protein kinases.

p70S6K, sequence (P23443 whole entry): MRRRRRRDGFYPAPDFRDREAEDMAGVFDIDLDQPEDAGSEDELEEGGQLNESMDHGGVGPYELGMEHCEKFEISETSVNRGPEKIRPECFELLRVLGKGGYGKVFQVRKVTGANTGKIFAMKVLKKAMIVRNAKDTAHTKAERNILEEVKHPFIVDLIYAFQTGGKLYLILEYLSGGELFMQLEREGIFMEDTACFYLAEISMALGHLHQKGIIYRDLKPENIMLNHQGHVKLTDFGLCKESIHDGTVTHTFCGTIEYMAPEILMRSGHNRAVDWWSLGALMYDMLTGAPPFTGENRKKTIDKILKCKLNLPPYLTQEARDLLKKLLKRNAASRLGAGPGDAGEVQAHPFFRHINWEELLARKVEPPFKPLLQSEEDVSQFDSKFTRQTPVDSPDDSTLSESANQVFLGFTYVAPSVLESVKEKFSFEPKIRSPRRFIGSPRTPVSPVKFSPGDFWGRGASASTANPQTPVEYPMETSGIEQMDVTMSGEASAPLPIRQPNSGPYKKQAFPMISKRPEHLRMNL

For `NC1(C(=O)N[C@@H](CCO)c2ccc(Cl)cc2)CCN(c2ncnc3[nH]ccc23)CC1` [AZD5363], the tolerability entry in data set [1] is given as “generally well tolerated”.

Consider `Clc1ccc(C2(c3ccc(-c4cn[nH]c4)cc3)CCNCC2)cc1` [AT7867], for which the IC50 (commonly the concentration that gives 50% inhibition) in data set [2] was 0.085 µM; in data set [3] it was 0.02 µM.

Take `CC(C)NC[C@@H](C(=O)N1CCN(c2ncnc3c2[C@H](C)C[C@H]3O)CC1)c1ccc(Cl)cc1` [GDC-0068]: in data set [4], the “single agent maximum tolerated dose” value was 600 mg. As to `NC1(c2ccc(-c3nc4ccn5c(=O)[nH]nc5c4cc3-c3ccccc3)cc2)CCC1` [MK-2206], the dose-limiting toxicities result in data set [5] (30, 60, 75, or 90 mg on alternate days) is “skin rash and stomatitis”. For the same molecule, the MTD in data set [5] (oral, alternate days) was 60 mg. As to `NC1(c2ccc(-c3nc4ccn5c(=O)[nH]nc5c4cc3-c3ccccc3)cc2)CCC1` [MK-2206 2HCl], the “inhibitory activities against 250 other protein kinases” value in data set [6] is reported as “no inhibitory activities”.
